In patent publication US20240090547A1, “SWEETENER COMPOSITIONS COMPRISING MOGROSIDES AND USES THEREOF” (Firmenich Incorporated, priority 2021, published 2024):

Assays:
Type in all cases: in vivo, human
panel of volunteers [1] = assay: Sensory testing for sparkling orange beverage
Experimental: (§1) A panel of volunteers evaluated siamenoside I for in-mouth attributes (sweetness, delayed sweetness, sourness, bitterness, global flavor intensity, thickness/body, and astringence) and aftertaste (AT) attribtues (lingering sweetness, overall off-taste intensity, licorice off-tast, bitterness off-taste, and mouth coating) on a 10-point scale. Two replicate sessions were conducted, with a 20 minute break between sessions. There was a 90 second delay between samples within a session. Panelists evaluated all samples in a first session and evaluated the samples again a second time in a second session. Control samples of Rebaudioside M (Reb M) were evaluated during all sessions as a control. Mogroside V was also evaluated and sensory data for mogroside V is provided.
(§2) Data analysis was performed using 2-way analysis of variance (ANOVA) with interaction using Tukey's HSD test. The data was normalized for each attribute according to average scores for Reb M.
A panel of volunteers evaluated a sparkling orange beverage containing siamenodie I for in-mouth attributes and aftertaste attributes according to the methods described in Example 1 above.
The average normalized in-mouth attributes for a sample of sparkling orange beverage containing siamenoside I was evaluated and the results are provided below.
The average normalized aftertaste attributes for a sample of sparkling orange beverage containing siamenoside I was evaluated and the results are provided below.

expert panelists = assay: Expert panelists' comparison of mogrosides with stevia; details: 'Examples 4 and 5', in words
panel of volunteers [2] = assay: Sensory testing for vanilla milk; details: for Licorice Aftertaste / Lingering Sweetness / Mouth Coating / Overall Off-Taste: aftertaste
Experimental: as §1, §2
A panel of volunteers evaluated vanilla milk for in-mouth attributes and aftertaste attributes according to the methods described in Example 1 above.
The average normalized in-mouth attributes for each sample of vanilla milk was evaluated and the results are provided below.
The average normalized aftertaste attributes for each sample of vanilla milk containing siamenoside I was evaluated and the results are provided below.

panel of flavorists [3] = assay: Additional sensory testing for lemon-flavored (lemon-lime) beverage, flavorist panel; details: 600 ppm mogrosides, 0 to 10 scale, letter in parentheses = Duncan's test group
Experimental: A panel of flavorists at three locations evaluated lemon-lime beverage various mogrosides at a concentration of 600 ppm mogrosides for in-mouth attributes (peak sweetness, upfront sweetness, bitterness, and mouthfeel/thickness) and aftertaste attributes (sweet taste linger), on a 0 to 10 scale. The in-mouth attributes were evaluated while holding the sample in the mouth, while the aftertaste attributes were evaluated after expectoration.

panel of volunteers [4] = assay: Sensory testing for apple drink (panel, in-mouth and aftertaste attributes); set-up: key to Sweetness / Delayed Sweetness / Bitterness / Lingering Sweetness / Overall Off-Taste / Licorice Aftertaste / Bitterness Aftertaste / Mouth Coating: 10-point scale; normalized per attribute to average Reb M scores; details: for Bitterness / Delayed Sweetness / Global Flavor Intensity / Sweetness / Thickness/Body: in-mouth, average normalized score
Experimental: as §1, §2
The average normalized in-mouth attributes for each sample of apple drink containing siamenoside I was evaluated below.
The average sweetness for each sample of apple drink containing siamenoside I was evaluated below.

panel of flavorists [5] = assay: Additional sensory testing for vanilla milk, flavorist panel; details: 400 ppm mogrosides, 0 to 10 scale, letter in parentheses = Duncan's test group
Experimental: A panel of flavorists at three locations evaluated vanilla milk containing various mogrosides at a concentration of 400 ppm mogrosides for in-mouth attributes (peak sweetness, upfront sweetness, bitterness, and mouthfeel/thickness) and aftertaste attributes (sweet taste linger), on a 0 to 10 scale. The in-mouth attributes were evaluated while holding the sample in the mouth, while the aftertaste attributes were evaluated after expectoration. The data was analyzed using Duncan's new multiple range test and the scores are provided in the data below in parentheses.

panel of volunteers [6] = assay: Sensory testing for lemon-lime carbonated soft drink; set-up: key to Sweetness / Delayed Sweetness / Bitterness / Lingering Sweetness / Overall Off-Taste / Licorice Aftertaste / Bitterness Aftertaste: 10-point scale; scores normalized to average Reb M scores
Experimental: as §1, §2
A panel of volunteers evaluated the siamenoside I-containing lemon-lime carbonated soft drink for in-mouth attributes and aftertaste attributes according to the methods described in Example 1 above.
The average normalized in-mouth attributes for a sample of lemon-lime carbonated soft drink having […] was evaluated below.
The average normalized aftertaste attributes for a sample of lemon-lime carbonated soft drink having siamenoside I was evaluated below.

[7] = orange sparkling beverage, in words
[8] = sparkling orange beverage, 250 ppm (mogroside V 250 mg [sic]), aftertaste, average normalized score, 10-point scale
[9] = sparkling orange beverage, 250 ppm (mogroside V 250 mg [sic]), in-mouth, average normalized score, 10-point scale
[10] = 200 ppm (mogroside V 200 mg [sic]), average normalized score, 10-point scale
[11] = 200 ppm (mogroside V 200 mg [sic]), in-mouth, average normalized score, 10-point scale
[12] = 400 ppm (mogroside V 400 mg [sic]), average normalized score, 10-point scale
[13] = 400 ppm (mogroside V 400 mg [sic]), in-mouth, average normalized score, 10-point scale
[14] = at both 200 ppm and 400 ppm, in words
[15] = aftertaste, after expectoration
[16] = 250 ppm (mogroside V 250 mg [sic]), aftertaste, 10-point scale
[17] = 250 ppm (mogroside V 250 mg [sic]), 10-point scale
[18] = 500 ppm (mogroside V 500 mg [sic]), aftertaste, 10-point scale
[19] = 500 ppm (mogroside V 500 mg [sic]), 10-point scale
[20] = 600 ppm (mogroside V 600 mg [sic]), aftertaste, average normalized score, 10-point scale
[21] = 600 ppm (mogroside V 600 mg [sic]), in-mouth, average normalized score, 10-point scale

C[C@H](CC[C@@H](O[C@@H]1O[C@H](CO[C@@H]2O[C@H](CO)[C@@H](O)[C@H](O)[C@H]2O)[C@@H](O)[C@H](O)[C@H]1O[C@@H]1O[C@H](CO)[C@@H](O)[C@H](O)[C@H]1O)C(C)(C)O)[C@H]1CC[C@@]2(C)[C@@H]3CC=C4[C@@H](CC[C@H](O[C@@H]5O[C@H](CO)[C@@H](O)[C@H](O)[C@H]5O)C4(C)C)[C@]3(C)[C@H](O)C[C@]12C [siamenoside I]
delayed sweetness compared with Reb M (panel of volunteers [1]; [7]): slightly higher
in mouth and aftertaste profile compared with Reb M (panel of volunteers [1]; [7]): comparable to that of Reb M
sweetness compared with Reb M (panel of volunteers [1]; [7]): slightly higher
sweetness compared with mogroside V (panel of volunteers [1]; [7]): higher sweetness
Licorice Aftertaste (panel of volunteers [1]; [8]): 2.8
Lingering Sweetness (panel of volunteers [1]; [8]): 4.4
Mouth Coating (panel of volunteers [1]; [8]): 2.9
Overall Off-Taste (panel of volunteers [1]; [8]): 3.6
Delayed Sweetness (panel of volunteers [1]; [9]): 3.7
Sweetness (panel of volunteers [1]; [9]): 5.9
bitter aftertaste compared with stevia (expert panelists): lower bitter aftertaste
licorice aftertaste compared with stevia (expert panelists): lower licorice aftertaste
mouthfeel compared with stevia (expert panelists): better mouthfeel
Licorice Aftertaste (panel of volunteers [2]; [10]): 1.2
Lingering Sweetness (panel of volunteers [2]; [10]): 3.3
Mouth Coating (panel of volunteers [2]; [10]): 3.3
Overall Off-Taste (panel of volunteers [2]; [10]): 1.8
Astringence (panel of volunteers [2]; [11]): 0.7
Delayed Sweetness (panel of volunteers [2]; [11]): 2.2
Fattiness (panel of volunteers [2]; [11]): 3.5
Sourness (panel of volunteers [2]; [11]): 1.1
Sweetness (panel of volunteers [2]; [11]): 5.6
Licorice Aftertaste (panel of volunteers [2]; [12]): 1.7
Lingering Sweetness (panel of volunteers [2]; [12]): 4.8
Mouth Coating (panel of volunteers [2]; [12]): 0.5
Overall Off-Taste (panel of volunteers [2]; [12]): 2.4
Astringence (panel of volunteers [2]; [13]): 0.8
Bitterness (panel of volunteers [2]; [13]): 0.8
Delayed Sweetness (panel of volunteers [2]; [13]): 2.6
Fattiness (panel of volunteers [2]; [13]): 4.3
Global Flavor Intensity (panel of volunteers [2]; [13]): 4.6
Sourness (panel of volunteers [2]; [13]): 0.7
Sweetness (panel of volunteers [2]; [13]): 7.7
lingering sweetness compared with Reb M (panel of volunteers [2]; [14]): increased
sweetness compared with Reb M (panel of volunteers [2]; [14]): increased
bitterness compared with mogroside V (panel of volunteers [2]; in words): lower bitterness
delayed sweetness compared with mogroside V (panel of volunteers [2]; in words): higher
global flavor intensity compared with mogroside V (panel of volunteers [2]; in words): higher global flavor intensity
sweetness compared with mogroside V (panel of volunteers [2]; in words): higher
Sweet Linger (panel of flavorists [3]; [15]): 4.429 (bc)
Bitterness (panel of flavorists [3]; in-mouth): 2.571 (a)
Mouthfeel/Thickness (panel of flavorists [3]; in-mouth): 3.429 (ab)
Peak Sweetness (panel of flavorists [3]; in-mouth): 6.571 (b)—
Upfront Sweetness (panel of flavorists [3]; in-mouth): 4.286 (b)
Bitterness Aftertaste (panel of volunteers [4]; [16]): 1.3
Licorice Aftertaste (panel of volunteers [4]; [16]): 2.2
Lingering Sweetness (panel of volunteers [4]; [16]): 3.2
Overall Off-Taste (panel of volunteers [4]; [16]): 2.5
Bitterness (panel of volunteers [4]; [17]): 1.5
Delayed Sweetness (panel of volunteers [4]; [17]): 2.3
Global Flavor Intensity (panel of volunteers [4]; [17]): 3.5
Sweetness (panel of volunteers [4]; [17]): 4.0
Thickness/Body (panel of volunteers [4]; [17]): 1.2
Licorice Aftertaste (panel of volunteers [4]; [18]): 2.7
Lingering Sweetness (panel of volunteers [4]; [18]): 4.7
Mouth Coating (panel of volunteers [4]; [18]): 2.4
Overall Off-Taste (panel of volunteers [4]; [18]): 3.4
Bitterness (panel of volunteers [4]; [19]): 1.7
Delayed Sweetness (panel of volunteers [4]; [19]): 3.2
Global Flavor Intensity (panel of volunteers [4]; [19]): 4.4
Sweetness (panel of volunteers [4]; [19]): 5.3
Thickness/Body (panel of volunteers [4]; [19]): 1.6
global flavor intensity compared with mogroside V (panel of volunteers [4]; in words): higher global flavor intensity
in-mouth and aftertaste profile compared with Reb M (panel of volunteers [4]; in words): comparable to that of Reb M
overall off-taste compared with mogroside V (panel of volunteers [4]; in words): lower overall off-taste
sweetness compared with mogroside V (panel of volunteers [4]; in words): sweeter
Sweet Linger (panel of flavorists [5]; [15]): 5.875 (a)
Bitterness (panel of flavorists [5]; in-mouth): 1.688 (a)
Mouthfeel/Thickness (panel of flavorists [5]; in-mouth): 5.000 (ab)
Peak Sweetness (panel of flavorists [5]; in-mouth): 7.375 (a)—
Upfront Sweetness (panel of flavorists [5]; in-mouth): 5.938 (ab)
Bitterness Aftertaste (panel of volunteers [6]; [20]): 1.3
Licorice Aftertaste (panel of volunteers [6]; [20]): 3.0
Lingering Sweetness (panel of volunteers [6]; [20]): 4.4
Overall Off-Taste (panel of volunteers [6]; [20]): 4.1
Bitterness (panel of volunteers [6]; [21]): 1.6
Delayed Sweetness (panel of volunteers [6]; [21]): 4.1
Global Flavor Intensity (panel of volunteers [6]; [21]): 4.7
Sweetness (panel of volunteers [6]; [21]): 6.0
bitterness compared with Reb M (panel of volunteers [6]; 600 ppm, in words): overall lower bitterness
global flavor intensity compared with Reb M (panel of volunteers [6]; 600 ppm, in words): same
sweetness compared with Reb M (panel of volunteers [6]; 600 ppm, in words): same
bitterness aftertaste compared with mogroside V (panel of volunteers [6]; in words): lower bitterness aftertaste
bitterness compared with mogroside V (panel of volunteers [6]; in words): lower bitterness
global flavor intensity compared with mogroside V (panel of volunteers [6]; in words): higher global flavor intensity
in mouth and aftertaste profile compared with Reb M (panel of volunteers [6]; in words): comparable to that of Reb M
sweetness compared with mogroside V (panel of volunteers [6]; in words): higher sweetness
